Reference: PubChem BioAssay (NCI)
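In this assay, cells in 96-well plates receive the compound at five concentrations for 48 hours. Endpoints are linearly interpolated between the surrounding concentrations. GI50 is the concentration that inhibits growth by half. TGI: concentration producing complete growth inhibition.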

How the values were obtained:
Test in all cases: NCI anticancer screen, dose series, 48 h
CAKI-1 renal = tested on: CAKI-1 renal
SK-MEL-5 melanoma = tested on: SK-MEL-5 melanoma
SN12C renal = tested on: SN12C renal
SNB-19 CNS = tested on: SNB-19 CNS
IGROV1 ovarian = tested on: IGROV1 ovarian
MOLT-4 leukemia = tested on: MOLT-4 leukemia
U251 CNS = tested on: U251 CNS
SR leukemia = tested on: SR leukemia
NCI-H460 lung = tested on: NCI-H460 lung
NCI-H23 lung = tested on: NCI-H23 lung

| Structure (SMILES) | GI50 (CAKI-1 renal) [µM] | TGI (CAKI-1 renal) [µM] | GI50 (SK-MEL-5 melanoma) [µM] | TGI (SK-MEL-5 melanoma) [µM] | GI50 (SN12C renal) [µM] | TGI (SN12C renal) [µM] | GI50 (SNB-19 CNS) [µM] | TGI (SNB-19 CNS) [µM] | GI50 (IGROV1 ovarian) [µM] | TGI (IGROV1 ovarian) [µM] | GI50 (MOLT-4 leukemia) [µM] | TGI (MOLT-4 leukemia) [µM] | GI50 (U251 CNS) [µM] | TGI (U251 CNS) [µM] | GI50 (SR leukemia) [µM] | TGI (SR leukemia) [µM] | GI50 (NCI-H460 lung) [µM] | TGI (NCI-H460 lung) [µM] | GI50 (NCI-H23 lung) [µM] | TGI (NCI-H23 lung) [µM] |
| --- | --- | --- | --- | --- | --- | --- | --- | --- | --- | --- | --- | --- | --- | --- | --- | --- | --- | --- | --- | --- |
| O=c1oc2ccc(I)cc2c(=O)n1-c1ccc(Cl)cc1F | 1.09 | 5.61 | 0.751 | 2.19 | 0.8 | 8.77 | 0.64 | 58.7 | 1.19 | 21.1 | 2.24 | 6.81 | 1.51 | 24.5 | 1.13 | > 100 | 0.89 | 13.1 | 1.61 | 7.68 |
| COc1ccc2c(c1)/C(=C/c1cc(OC)c(OC)c(OC)c1)C(=O)N2 | 0.118 | – | 0.155 | – | 1.18 | > 100 | 0.433 | > 100 | 0.268 | > 53.8 | 0.216 | > 100 | 0.407 | 16.7 | – | 0.59 | 0.269 | > 100 | 0.613 | > 63.2 |
| CCCCN(CC)CC(C(C)=O)c1c(O)c2ccccc2oc1=O (stereo unspecified) | – | > 100 | – | > 100 | – | > 100 | – | > 100 | – | > 100 | – | > 100 | – | > 100 | – | > 100 | – | > 100 | – | > 100 |
| O=C(O)[C@H](c1ccccc1)[C@@H](C(=O)O)c1ccccc1 | – | > 100 | – | > 100 | – | > 100 | – | > 100 | – | > 100 | – | > 100 | – | > 100 | – | > 100 | – | > 100 | – | > 100 |
| Cc1ccccc1C(=O)N1CCN(C(=O)c2ccccc2C)CC1 | – | > 100 | – | > 100 | – | > 100 | – | > 100 | – | > 100 | – | > 100 | – | > 100 | – | > 100 | – | > 100 | – | > 100 |
| N#Cc1ccc(NC(=O)C(CC(=O)OCc2ccccc2)NC(=O)OCc2ccccc2)cc1 (stereo unspecified) | > 100 | > 100 | – | > 100 | > 100 | > 100 | > 100 | > 100 | > 100 | > 100 | > 100 | > 100 | > 100 | > 100 | > 100 | > 100 | > 100 | > 100 | > 100 | > 100 |
| COc1ccc(CN2CCC/C=C/CC(Cl)(Cl)C2=O)cc1 | – | > 100 | – | 35 | – | > 100 | – | 95.4 | – | > 100 | – | 68 | – | > 100 | – | 68.8 | – | > 100 | – | 99.5 |
| CCOC(=O)C(NC(=O)c1nc[nH]c1[N+](=O)[O-])C(C)C (stereo unspecified) | – | > 100 | – | > 100 | – | > 100 | – | > 100 | – | > 100 | – | > 100 | – | > 100 | – | > 100 | – | > 100 | – | > 100 |
| COC(=O)C1(C)Cc2cc(OC(C)=O)c(OC(C)=O)cc2N1 (stereo unspecified) | 2.98 | 11.3 | 13.9 | 27.8 | 17 | > 81.8 | > 61.9 | > 100 | 5.93 | 13.9 | 8.18 | > 60.2 | 8.09 | 21.9 | 1.65 | 4.76 | 32.8 | > 100 | 18.2 | 62.5 |
